Experimental data from ChEMBL document CHEMBL1158719, “Cytotoxic xanthones from Cudrania tricuspidata” (J Nat Prod, 2005).

Tests used:
[1] = test system: SK-OV-3; experiment: Cytotoxicity against human SKOV3 cells after 48 hrs by SRB assay; format: functional, cell-based; details: SK-OV-3, 48 h
[2] = test system: A549; experiment: Cytotoxicity against human A549 cells after 48 hrs by SRB assay; format: functional, cell-based; details: A549, 48 h

| Structure (SMILES) | IC50 [1] [µM] | IC50 [2] [µM] |
| --- | --- | --- |
| C=CC(C)(C)c1c(O)cc(O)c2c(=O)c3c(CC=C(C)C)c(O)c(O)cc3oc12 [CUDRATRICUSXANTHONE A] | 7.09 | 5.93 |
| C=CC(C)(C)c1c(O)cc2oc3c(CC=C(C)C)c(O)c(O)cc3c(=O)c2c1O [CUDRAXANTHONE L] | 4.72 | 3.15 |
| C=CC(C)(C)c1c(O)c(CC=C(C)C)c2oc3cc(O)c(O)cc3c(=O)c2c1O [MACLURAXANTHONE B] | 4.24 | 2.88 |
| CC(=O)O[C@H]1C(=O)[C@@]2(C)[C@H]([C@H](OC(=O)c3ccccc3)[C@]3(O)C[C@H](OC(=O)[C@H](O)[C@@H](NC(=O)c4ccccc4)c4ccccc4)C(C)=C1C3(C)C)[C@]1(OC(C)=O)CO[C@@H]1C[C@@H]2O [PACLITAXEL] | 1.35 | 1.25 |
